According to PubChem BioAssay (NCI):
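96-well plates; 48 h exposure; 5 concentrations. Endpoints by linear interpolation between flanking doses. Not reached: highest tested concentration assigned. GI50 is the concentration that inhibits growth by half. Definition used: TGI = concentration required for complete inhibition of growth.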

Experiments:
Experiment in all cases: DTP human tumour cell line panel, 48 h
HOP-62 NSCLC = tested on: HOP-62 NSCLC
OVCAR-5 ovarian = tested on: OVCAR-5 ovarian
SF-268 CNS = tested on: SF-268 CNS
NCI-H23 lung = tested on: NCI-H23 lung
HCC-2998 colon = tested on: HCC-2998 colon
A498 renal = tested on: A498 renal
HS 578T breast = tested on: HS 578T breast
SF-295 CNS = tested on: SF-295 CNS
PC-3 prostate = tested on: PC-3 prostate
OVCAR-8 ovarian = tested on: OVCAR-8 ovarian
HCT-15 colon = tested on: HCT-15 colon
OVCAR-3 ovarian = tested on: OVCAR-3 ovarian
EKVX NSCLC = tested on: EKVX NSCLC
MCF7 breast = tested on: MCF7 breast
UACC-62 melanoma = tested on: UACC-62 melanoma
DU-145 prostate = tested on: DU-145 prostate
IGROV1 ovarian = tested on: IGROV1 ovarian
NCI/ADR-RES ovarian = tested on: NCI/ADR-RES ovarian
UACC-257 melanoma = tested on: UACC-257 melanoma
HL-60(TB) leukemia = tested on: HL-60(TB) leukemia
786-0 renal = tested on: 786-0 renal
SK-MEL-5 melanoma = tested on: SK-MEL-5 melanoma
RXF 393 renal = tested on: RXF 393 renal
MDA-MB-435 = tested on: MDA-MB-435
TK-10 renal = tested on: TK-10 renal
SF-539 CNS = tested on: SF-539 CNS
ACHN renal = tested on: ACHN renal
HOP-92 NSCLC = tested on: HOP-92 NSCLC
K-562 leukemia = tested on: K-562 leukemia
HCT-116 colon = tested on: HCT-116 colon
LOX IMVI melanoma = tested on: LOX IMVI melanoma
SK-MEL-2 melanoma = tested on: SK-MEL-2 melanoma
RPMI-8226 leukemia = tested on: RPMI-8226 leukemia
CAKI-1 renal = tested on: CAKI-1 renal
SW-620 colon = tested on: SW-620 colon
KM12 colon = tested on: KM12 colon
NCI-H226 lung = tested on: NCI-H226 lung
NCI-H460 lung = tested on: NCI-H460 lung
A549 NSCLC = tested on: A549 NSCLC
M14 melanoma = tested on: M14 melanoma
SN12C renal = tested on: SN12C renal
CCRF-CEM leukemia = tested on: CCRF-CEM leukemia
UO-31 renal = tested on: UO-31 renal
BT-549 breast = tested on: BT-549 breast
MDA-MB-231 breast = tested on: MDA-MB-231 breast
NCI-H522 lung = tested on: NCI-H522 lung

## CC1NC(=O)C2=C1C(=O)NC(=O)C2 (configuration not stated)
HOP-62 NSCLC
  GI50: > 100 µM
  TGI: > 100 µM
OVCAR-5 ovarian
  GI50: > 100 µM
  TGI: > 100 µM
SF-268 CNS
  GI50: > 100 µM
  TGI: > 100 µM
NCI-H23 lung
  GI50: > 100 µM
  TGI: > 100 µM
HCC-2998 colon
  GI50: > 100 µM
  TGI: > 100 µM
A498 renal
  GI50: > 100 µM
  TGI: > 100 µM
HS 578T breast
  GI50: > 100 µM
  TGI: > 100 µM
SF-295 CNS
  GI50: > 100 µM
  TGI: > 100 µM
PC-3 prostate
  GI50: > 100 µM
  TGI: > 100 µM
OVCAR-8 ovarian
  GI50: > 100 µM
  TGI: > 100 µM
HCT-15 colon
  GI50: > 100 µM
  TGI: > 100 µM
OVCAR-3 ovarian
  GI50: > 100 µM
  TGI: > 100 µM
EKVX NSCLC
  GI50: > 100 µM
  TGI: > 100 µM
MCF7 breast
  GI50: > 100 µM
  TGI: > 100 µM
UACC-62 melanoma
  GI50: > 100 µM
  TGI: > 100 µM
DU-145 prostate
  GI50: > 100 µM
  TGI: > 100 µM
IGROV1 ovarian
  GI50: > 100 µM
  TGI: > 100 µM
NCI/ADR-RES ovarian
  GI50: > 100 µM
  TGI: > 100 µM
UACC-257 melanoma
  GI50: > 100 µM
  TGI: > 100 µM
HL-60(TB) leukemia
  GI50: > 100 µM
  TGI: > 100 µM
786-0 renal
  GI50: > 100 µM
  TGI: > 100 µM
SK-MEL-5 melanoma
  GI50: > 100 µM
  TGI: > 100 µM
RXF 393 renal
  GI50: > 100 µM
  TGI: > 100 µM
MDA-MB-435
  GI50: > 100 µM
  TGI: > 100 µM
TK-10 renal
  GI50: > 100 µM
  TGI: > 100 µM
SF-539 CNS
  GI50: > 100 µM
  TGI: > 100 µM
ACHN renal
  GI50: > 100 µM
  TGI: > 100 µM
HOP-92 NSCLC
  GI50: > 100 µM
  TGI: > 100 µM
K-562 leukemia
  GI50: > 100 µM
  TGI: > 100 µM
HCT-116 colon
  GI50: > 100 µM
  TGI: > 100 µM
LOX IMVI melanoma
  GI50: > 100 µM
  TGI: > 100 µM
SK-MEL-2 melanoma
  GI50: > 100 µM
  TGI: > 100 µM
RPMI-8226 leukemia
  GI50: > 100 µM
  TGI: > 100 µM
CAKI-1 renal
  GI50: > 100 µM
  TGI: > 100 µM
SW-620 colon
  GI50: > 100 µM
  TGI: > 100 µM
KM12 colon
  GI50: > 100 µM
  TGI: > 100 µM
NCI-H226 lung
  GI50: > 100 µM
  TGI: > 100 µM
NCI-H460 lung
  GI50: > 100 µM
  TGI: > 100 µM
A549 NSCLC
  GI50: > 100 µM
  TGI: > 100 µM
M14 melanoma
  GI50: > 100 µM
  TGI: > 100 µM
SN12C renal
  GI50: > 100 µM
  TGI: > 100 µM
CCRF-CEM leukemia
  GI50: > 100 µM
  TGI: > 100 µM
UO-31 renal
  GI50: > 100 µM
  TGI: > 100 µM
BT-549 breast
  GI50: > 100 µM
  TGI: > 100 µM
MDA-MB-231 breast
  GI50: > 100 µM
  TGI: > 100 µM
NCI-H522 lung
  GI50: > 100 µM
  TGI: > 100 µM
